Experimental data: US10793601B2, “Therapeutic spalt-like transcription factor 4 (SALL4) peptide” (National University of Singapore, priority 2016, dated 2020)
Blank lines part the entries; values can stand above or below the compound they belong to. Ends that are not written are not given here.

What was measured:
[1] = molecular target: T1, RBBp4 (Homo sapiens, UniProt Q09028); assay: Fluorescence polarization (FP) competition with FITC-labelled SALL4 WT peptide; assay type: binding; details: displacement of FITC-SALL4 WT peptide from RBBp4
T1 construct: purchased SinoBiological
T1 sequence (Q09028 whole entry): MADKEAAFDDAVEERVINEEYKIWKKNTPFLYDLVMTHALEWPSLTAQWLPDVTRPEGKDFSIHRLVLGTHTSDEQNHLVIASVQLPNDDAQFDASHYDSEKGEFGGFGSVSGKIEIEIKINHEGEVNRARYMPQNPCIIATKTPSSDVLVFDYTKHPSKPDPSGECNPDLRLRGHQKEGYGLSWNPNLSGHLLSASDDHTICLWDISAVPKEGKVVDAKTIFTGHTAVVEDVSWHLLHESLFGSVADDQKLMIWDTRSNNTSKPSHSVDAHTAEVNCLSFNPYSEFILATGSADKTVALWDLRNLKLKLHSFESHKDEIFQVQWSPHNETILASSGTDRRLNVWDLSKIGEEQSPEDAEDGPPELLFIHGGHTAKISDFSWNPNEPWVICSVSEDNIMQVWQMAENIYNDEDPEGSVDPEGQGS
Method: (§1) FIGS. 3A-3E. Key residues involved in SALL4 (1-12)-RBBp4 binding. […] The difference in the binding free energy (ΔΔGbind) of the alanine mutants (ΔGmutant, Ala7 was mutated to glycine) and wild type (ΔGwild type) was calculated (ΔΔGbind=ΔGmutant−ΔGwild type). ΔΔGbind was tabulated (left) and plotted in a bar chart (right). […] Mutated residues are highlighted in red. The IC50 of each peptide, including WT, was determined by Fluorescence Polarization (FP). Different concentrations of each peptide were titrated into a mixture of 0.04 μM RBBp4 and 0.01 μM of C-labelled FITC-SALL4 WT peptide. Polarization was measured in mP. […] Pep-1 carrier was added to the peptide to facilitate cellular penetration of the peptides.
Peptides were titrated into a master mix of 0.045 μM RBBp4 and […] C-terminal FITC-labelled WT peptide (synthesized by Thermo Scientific). Reactions were incubated at room temperature before the plate was read with an Envision instrument (Perkin Elmer). IC50 values of peptides were determined using Prism (GraphPad).

[2] = test system: SNU398 cells; assay: Cell viability assay in SNU398 cells; assay type: cell-based
Method: as §1
FIGS. 5A-5B. Development of a potent therapeutic peptide FFW.
SNU398 was grown in RPMI supplemented with 10% fetal bovine serum (FBS) at 37° C. in a humidified atmosphere of 5% CO2. 3000 cells were seeded in each well of a 96 well plate with 100 μL of medium. Before peptide treatment, cells were washed twice with PBS and treated with different concentrations of peptide in OPTIMEM (LifeTech). Media was added after 4 hrs of incubation at 37° C., and cells incubated for another 68 hrs. Tetrazolium (CellTiter96 AQueous One Solution Cell Proliferation Assay, Promega) was added after 72 hrs incubation with the peptides, and the plate was read at a plate reader at 490 nm after 1 hr of incubation in the dark at 37° C.

[3] = test system: SNU398 tumor xenografts; assay: SNU398 xenograft in NSG mice; assay type: in vivo, NOD/SCID/gamma mice; details: for effect on tumor growth: SNU398 xenograft, tumor volume against time; for tumor weight: mean, tumors resected on day 20, five i.p. injections
Method: FIGS. 7A-7E. […] FIG. 7A: 7.2×10^5 SNU398 cells were inoculated subcutaneously into the right flank of NOD/SCID/gamma mice (NSG mice). Tumors were allowed to grow for one week before peptide treatments were administered every alternate day for a total of five injections. FIG. 7B: Tumor growth was documented by plotting tumor volume against time. […] FIG. 7C: Relative size of tumors resected on day 20. FIG. 7D: tumor weight was determined (n=5). […] FIG. 7E: Total RNA was isolated from the resected tumors and expression of PTEN was measured using real-time PCR.
FIGS. 9A-9E. […] FIG. 9A: PEN-FFW treated SNU398 tumor xenografts were compared to that of Sorafenib treated xenografts. FIG. 9B: PEN-FFW treated PLC8024 tumor xenografts were compared to that of Sorafenib treated xenografts. Mice body weight was measured to access toxicity of various peptides. FIG. 9C: Body weight of mice at day 17. FIG. 9D: Differences of body weight compared to day 0 (As indicated by the arrow in far left of FIG. 7A). FIG. 9E: Body weight of mice at day 19th in the experiment shown in FIG. 9A comparing effect of Sorafenib and PEN-FFW. Data represent mean±s.d. (n=5).
All mice were treated in accordance with Responsible Care and Use of Laboratory animals. In the SNU398 in vivo studies, 6-8-week-old female C.B-17 severe combined immunodeficient (SCID) mice (NSG) were inoculated s.c. into the flank with 7.2×10^5 cells in 2:1 PBS/Matrigel (BD Biosciences). The tumours were then allowed to develop to the size of 50-70 mm3 before intraperitoneal injections of the different peptides were given at two to three-day intervals for a total of 5 injections. Mice were randomly grouped in sets of six and treated with PEN (penetratin control), PEN-MUT (mutant control), PEN-WT (wild type control) and PEN-FFW (peptide 47). Tumor volumes were measured every 5 days and tumor weight were measured at the end point. For PEN control, 22.5 mg/kg were given; for PEN-MUT, PEN-WT and PEN-FFW, 35.6 mg/kg, 37 mg/kg and 36 mg/kg were given respectively to the mice according to their body weight Tumor measurements were taken twice weekly using Vernier calipers. Tumor volume was estimated using the following formula: V=0.5×width×width×length. When tumors approached ˜50 mm3, mice were randomized into groups of 5 animals each and received peptides treatment three times weekly by i.p. injection. All statistical analysis was done using a one-way ANOVA and Student's T-test.

[4] = test system: PLC8024 tumor xenografts; assay: PLC8024 xenograft (Sorafenib-resistant HCC); assay type: in vivo, mice
Method: FIGS. 9A-9E. Clinical significance of PEN-FFW compared to Sorafenib. FIG. 9A: PEN-FFW treated SNU398 tumor xenografts were compared to that of Sorafenib treated xenografts. FIG. 9B: PEN-FFW treated PLC8024 tumor xenografts were compared to that of Sorafenib treated xenografts. Mice body weight was measured to access toxicity of various peptides. FIG. 9C: Body weight of mice at day 17. FIG. 9D: Differences of body weight compared to day 0 (As indicated by the arrow in far left of FIG. 7A). FIG. 9E: Body weight of mice at day 19th in the experiment shown in FIG. 9A comparing effect of Sorafenib and PEN-FFW. Data represent mean±s.d. (n=5).
Clinical significance of PEN-FFW was studied in vivo by benchmarking against current therapy using Sorafenib. PEN-FFW treated SNU398 tumor xenografts were compared to that of Sorafenib treated xenografts (FIG. 9A). […] Potential therapeutic effect of PEN-FFW in HCC patients that are refractory to Sorafenib treatment was studied also studied in vivo. using a HCC cell line, PLC8024 which is SALL4 positive, CD133+ and is both chemo- and radio-resistant (Li et al., BMC Cancer 2016, 16, 15; Ma et al., Oncogene 2008, 27: 1749-1758), for the xenograft study.

[5] = molecular target: T1, RBBp4; assay: Isothermal titration calorimetry (ITC) of SALL4 peptide against RBBp4; details: 25° C., 1:1 binding model
Method: (§2) FIGS. 1A-1B. Binding affinity of WT SALL4 (1-12 aa) to RBBp4.
ITC was carried out with an Auto-iTC200 instrument from Microcal Inc. at 25° C. […] of RBBp4 in 50 mM Tris and 100 mM NaCl at pH 7.4 was loaded into the ITC cell. Sal14 peptide at […] was auto-loaded into the syringe. The titration was carried out with 18 injections of 2.4 μl, performed over a period of 30 min with stirring at 1000 rpm. The ITC data was analysed using Origin software from Microcal.

[6] = molecular target: T1, RBBp4; assay: Surface plasmon resonance (SPR), RBBp4 immobilised on CM5 chip; assay type: binding
Method: as §2
SPR studies were performed using a Biacore T200 biosensor (GE Healthsciences). ˜12,000 resonance units (RU) of RBBp4 were immobilised by amine coupling to the carboxymethylated dextran matrix of a Series S CM5 chip (Biacore, GE Healthcare). Multi cycle kinetics analysis was performed at 25° C. through seven injections of SALL4 peptide (0.5 μM-8 μM). The association time and flow rate were set at 60 s and 30 μl/min respectively. The sensograms obtained were of good quality and kinetic rate constants were determined by curve fitting.

[7] = test system: PTEN; assay: PTEN transcript level by quantitative real-time PCR in SNU398 cells; assay type: cell-based; details: Q-PCR
[8] = test system: SNU398; assay: RNA-seq transcriptome analysis of treated SNU398; assay type: cell-based
Method: SNU398 were treated PEN, PEN-MUT, PEN-WT & PEN-FFW for 8 hrs and paired-end RNA-seq was performed for the treated samples. RNA-seq reads of each sample were mapped to hg19 using the STAR aligner. Normalization between the samples was based on the proportionality of the numbers of the mapped reads. The expression fold change of a transcript was obtained using linear regression of the reads between the two samples cross all exons. Differential expression between two samples was selected by using the fold change cut off of 2. Hierarchical clustering was performed based on average linkage to generate the clustering tree as well as heat maps. For identification of enriched gene sets or pathways, Gene Set Enrichment Analysis (GSEA) was performed based on the normalized data and using the GSEA tool (broad.mit.edu/gsea/) with msigdb.v5.0.

- IC50 [1]: 600 nM
Compound: Ac-SRRKQAKPQHI-NH2 [Peptide 5]

- IC50 [1]: 360 nM
Compound: Ac-RRRQAKPQHI-NH2 [Peptide 6]

- IC50 [1]: 4400 ± 1100 nM
Compound: Ac-RRKQAKLQHI-NH2 [Peptide 33]

- EC50 ([2]; 72 h): > 100000 nM
Compound: RQIKIWFQNRRMKWKKMSARAQAKPQHI [PEN-MUT]
- effect on tumor growth [3]: neither peptide was able to inhibit tumor growth
- tumor weight [3]: 1273.46 mg

- IC50 [1]: 800 nM
Compound: Ac-MSRRKQAKPQ-NH2 [Peptide 3]

Compound: RQIKIWFQNRRMKWKK [PEN]
- effect on tumor growth [3]: neither peptide was able to inhibit tumor growth
- tumor weight [3]: 1550.78 mg

- IC50 [1]: 170 nM
Compound: Ac-RRKQAKFQHI-NH2 [Peptide 34]

- IC50 [1]: 460 ± 100 nM
Compound: Ac-RRKQAKPLHI-NH2 [Peptide 38]

- IC50 [1]: 270 ± 30 nM
Compound: Ac-RRKQAKAQHI-NH2 [Peptide 13]

Compound: CNC(=O)c1cc(Oc2ccc(NC(=O)Nc3ccc(Cl)c(C(F)(F)F)c3)cc2)ccn1 [Sorafenib, reference compound]
- tumor growth as compared to the control group [4]: 1.5 fold

- IC50 [1]: 460 ± 200 nM
Compound: Ac-RRKQAKPQHA-NH2 [Peptide 16]

- Kd [5]: 1040 ± 60 nM
- koff [6]: 0.026 ± 0.00045 s⁻¹
- kon [6]: 16800 ± 460 M⁻¹ s⁻¹
- IC50 [1]: 1040 ± 200 nM
Compound: Ac-MSRRKQAKPQHI-NH2 [Peptide 1, reference compound]
- effect on cell number ([2]; SNU398, Pep-1 carrier added): exerts an inhibitory effect on cell number
- increase in PTEN expression compared to untreated cells [7]: 3 fold
- log2 fd versus Contr (PEN + Mut), ADORA2A-AS1 ([8]; gene ADORA2A-AS1, SNU398, 8 hrs): 1.05
- log2 fd versus Contr (PEN + Mut), AVPR2 ([8]; gene AVPR2, SNU398, 8 hrs): 0.11
- log2 fd versus Contr (PEN + Mut), CSAD ([8]; gene CSAD, SNU398, 8 hrs): 0.25
- log2 fd versus Contr (PEN + Mut), DNASE1L2 ([8]; gene DNASE1L2, SNU398, 8 hrs): 0.42
- log2 fd versus Contr (PEN + Mut), LOC619207 ([8]; gene LOC619207, SNU398, 8 hrs): 0.36
- log2 fd versus Contr (PEN + Mut), NEIL1 ([8]; gene NEIL1, SNU398, 8 hrs): 0.30
- log2 fd versus Contr (PEN + Mut), PRKXP1 ([8]; gene PRKXP1, SNU398, 8 hrs): 0.62
- log2 fd versus Contr (PEN + Mut), SSPO ([8]; gene SSPO, SNU398, 8 hrs): 0.99

- IC50 [1]: > 20000 nM
Compound: Ac-RRAQAKPQHI-NH2 [Peptide 10]
